Where “and” joins values, the source holds several entries; their conditions need not be identical. Equal entries are not always repeated. Structures can show the parent of a compound that is named as a salt.
System: HVA release in the rat prefrontal cortex
Test: Microdialysis: HVA release in prefrontal cortex after I.P. administration
Type: in vivo
Settings: for HVA (% of respective basal), individual animal: 0.1 mg/kg I.P., c2-c9 = R#13,14,20,19,25,26,31,32; for HVA (% of respective basal), individual animal / HVA release, individual animals: hydrochloride; for HVA release, MEAN / HVA release, individual animals: 0.3 mg/kg I.P.; for HVA release, MEAN / HVA release (% of basal levels) measured in dialysates, MEAN: n = 8; for HVA release, individual animals: one column per animal R#11,12,18,23,29,30,17,24; for HVA release (% of basal levels) measured in dialysates, MEAN: SON-117 3 mg/kg IP
Experimental: The aim of the study was to evaluate, using microdialysis, the effects of an intraperitoneal (I.P.) administration in rats of three different doses of SON-117 on dopamine and its metabolites, serotonin and its metabolite (5-HIAA), and norepinephrine levels in prefrontal cortex.
Thirty-two adult male Wistar rats were used for the whole study (4 groups of eight animals planned for the study, Table 1).
Surgery was performed on rats weighing about 300 g at the beginning of the experiments. Rats were anaesthetized with Ketamine (50 mg/kg) & Xylazine (15 mg/kg) by intramuscular administration. The animals were placed in a stereotaxic apparatus in the flat-skull position at a constant setting of −3.3 mm between ear bars and the incisor bar. The animals were treated with a local anesthesic (xylocaine 1%, Astra Zeneca) and an analgesic (Temgesic, from Schering Plough, 0.05 mg/kg, s.c.). A rostrocaudal midline incision was made with a lancet to expose the dorsal skull surface. The “stereotaxic zero” was defined by the Bregma in accordance with Paxinos and Watson's atlas (1986). A hole was drilled in the skull with a drill and the meninges were pierced with a sterile needle to implant a CMA12 guide cannula which later received the dialysis probe.
Coordinates used for implanting guide cannula in prefrontal cortex from Bregma were anteroposterior 3.7 mm, mediolateral 0.8 mm, and dorsoventral −2 mm (top of the probe was at −5 mm). The guide cannula was fixed to the skull with two stainless steel screws (1.88 mm outside diameter) anchored. An application of dental cement was added. A plastic collar allowed each animal to be tethered to a Swivel assembly of the CMA 120 awake animal system. Following surgery, rats were kept in individual cages and allowed to recover for a minimum of 3-5 days before the experimentation. The rats were handled and put in plastic bowl for 10 min at least every day to habituate the animals to their new environment for the dialysis. An I.P. administration with saline was also performed every day.
Dialysis probes (CMA12/3 mm, membrane, 20 kD cut-off, Carnegie Medicine, Stockholm, Sweden), were carefully washed before inserting into the guide cannula. The wash was performed with the artificial cerebrospinal fluid (aCSF) medium (NaCl 147 mM, KCl 2.7 mM, CaCl2 1.2 mM, MgCl2 0.85 mM) at room temperature. The dialysis system was then equilibrated at 20° C. at a perfusion rate of 1 μl/min with a Carnegie pump (CMA100). All catheters (FEP tubing, internal volume of 1.2 μl/10 cm, and tubing adaptors) used for microdialysis were treated in the same conditions.
The probes duly prepared were inserted into the guide cannula and the CMA120 Swivel assembly secured to the animal using a plastic collar. Flow through the dialysis probe with aCSF was maintained at a rate of 1 μl/min during the whole experimentation. The first four fractions (corresponding to 2 hours) were discarded to avoid the effects of parenchymal disturbance and to ensure that an approximate steady-state level was reached. Fractions were then collected over a period of 8.5 h during which time the animals remained quiet. The dialysates were automatically collected with an autosampler (microfraction collector CMA 140, Carnegie Medicin) and stored at −80° C. until analysis. […] Perfusion was then maintained for 7 hours with aCSF. The dialysates (30 μl) were collected into 300 μl vials, transferred into dry ice and then kept frozen (−80° C.) until analysis. Frozen samples were shipped to a partner for analysis. At the end of the microdialysis study, a PBS with colored ink was perfused through the probe in order to visualize the dialyzed area.
Catecholamine assay: Concentrations of dopamine, DOPAC, HVA, 5-HIAA, 5-HT, and norepinephrin were determined for each sample by HPLC coupled with electrochemical detection.

Cc1nnc(-c2cc3c(OC[C@@H](O)CN4CCC(c5ccc(Cl)c(Cl)c5)CC4)cccc3o2)o1 [SON-117, (S)-1-(4-(3,4-dichlorophenyl)piperidino)-3-(2-(5-methyl-1,3,4-oxadiazol-2-yl)benzo(b)furan-4-yloxy)-2-propanol hydrochloride]
HVA (% of respective basal), individual animal (T30-T1 h): 116.26 % of respective basal and 107.34 % of respective basal and 108.66 % of respective basal and 130.85 % of respective basal and 120.36 % of respective basal and 141.88 % of respective basal and 123.41 % of respective basal and 95.76 % of respective basal | HVA (% of respective basal), individual animal (T1 h 30-T2 h): 97.75 % of respective basal and 109.52 % of respective basal and 89.93 % of respective basal and 170.371 % of respective basal and 123.81 % of respective basal and 97.71 % of respective basal and 126.7 % of respective basal and 80.99 % of respective basal | HVA (% of respective basal), individual animal (T1 h-T1 h 30): 124.25 % of respective basal and 162.58 % of respective basal and 98.567 % of respective basal and 241.96 % of respective basal and 130.93 % of respective basal and 153.68 % of respective basal and 123.58 % of respective basal and 80.09 % of respective basal | HVA (% of respective basal), individual animal (T2 h 30-T3 h): 88.46 % of respective basal and 123.19 % of respective basal and 75.76 % of respective basal and 151.82 % of respective basal and 149.48 % of respective basal and 157.13 % of respective basal and 121.53 % of respective basal and 21.68 % of respective basal | HVA (% of respective basal), individual animal (T2 h-T2 h 30): 83.46 % of respective basal and 121.21 % of respective basal and 80.97 % of respective basal and 145.084 % of respective basal and 132.39 % of respective basal and 106.30 % of respective basal and 139.18 % of respective basal and 53.45 % of respective basal | HVA (% of respective basal), individual animal (T3 h 30-T4 h): 94.31 % of respective basal and 116.57 % of respective basal and 55.89 % of respective basal and 152.08 % of respective basal and 193.52 % of respective basal and 154.95 % of respective basal and 123.32 % of respective basal and 16.37 % of respective basal | HVA (% of respective basal), individual animal (T3 h-T3 h 30): 135.42 % of respective basal and 99.88 % of respective basal and 73.47 % of respective basal and 137.35 % of respective basal and 137.07 % of respective basal and 115.93 % of respective basal and 133.06 % of respective basal and 20.75 % of respective basal | HVA (% of respective basal), individual animal (T4 h 30-T5 h): 128.74 % of respective basal and 102.18 % of respective basal and 100.29 % of respective basal and 40.6 % of respective basal and 130.76 % of respective basal and 136.09 % of respective basal and 114.46 % of respective basal and 68.31 % of respective basal | HVA (% of respective basal), individual animal (T4 h-T4 h 30): 149.58 % of respective basal and 107.72 % of respective basal and 55.17 % of respective basal and 173.59 % of respective basal and 155.95 % of respective basal and 149.97 % of respective basal and 148.42 % of respective basal and 76.98 % of respective basal | HVA (% of respective basal), individual animal (T5 h 30-T6 h): 146.23 % of respective basal and 127.63 % of respective basal and 35.72 % of respective basal and 136.22 % of respective basal and 116.99 % of respective basal and 123.45 % of respective basal and 128.36 % of respective basal and 65.12 % of respective basal | HVA (% of respective basal), individual animal (T5 h-T5 h 30): 143.02 % of respective basal and 149.35 % of respective basal and 36.52 % of respective basal and 131.08 % of respective basal and 120.77 % of respective basal and 117.84 % of respective basal and 126.17 % of respective basal and 77.12 % of respective basal | HVA (% of respective basal), individual animal (T6 h 30-T7 h): 155.64 % of respective basal and 142.57 % of respective basal and 54.30 % of respective basal and 131.80 % of respective basal | HVA (% of respective basal), individual animal (T6 h-T6 h 30): 149.66 % of respective basal and 147.03 % of respective basal and 11.88 % of respective basal and 133.32 % of respective basal and 118.76 % of respective basal and 122.29 % of respective basal and 121.40 % of respective basal and 66.42 % of respective basal | HVA release, MEAN (T0-T30 min): 107.04 % of respective basal | HVA release, MEAN (T30-T1 h): 94.37 % of respective basal | HVA release, individual animals (T30-T1 h): 76.21 % of respective basal and 55.15 % of respective basal and 89.64 % of respective basal and 100.95 % of respective basal and 83.39 % of respective basal and 95.38 % of respective basal and 149.36 % of respective basal and 104.86 % of respective basal | HVA release, MEAN (T1 h 30-T2 h): 85.59 % of respective basal | HVA release, individual animals (T1 h 30-T2 h): 89.77 % of respective basal and 59.14 % of respective basal and 96.89 % of respective basal and 103.49 % of respective basal and 82.49 % of respective basal and 54.42 % of respective basal and 95.23 % of respective basal and 103.32 % of respective basal | HVA release, MEAN (T1 h-T1 h 30): 120.85 % of respective basal | HVA release, individual animals (T1 h-T1 h 30): 90.43 % of respective basal and 68.90 % of respective basal and 103.82 % of respective basal and 116.53 % of respective basal and 80.54 % of respective basal and 85.72 % of respective basal and 305.74 % of respective basal and 115.15 % of respective basal | HVA release, MEAN (T2 h 30-T3 h): 107.95 % of respective basal | HVA release, individual animals (T2 h 30-T3 h): 72.76 % of respective basal and 59.51 % of respective basal and 90.20 % of respective basal and 316.58 % of respective basal and 70.98 % of respective basal and 94.71 % of respective basal and 54.48 % of respective basal and 104.42 % of respective basal | HVA release, MEAN (T2 h-T2 h 30): 85.33 % of respective basal | HVA release, individual animals (T2 h-T2 h 30): 68.39 % of respective basal and 70.39 % of respective basal and 95.76 % of respective basal and 101.52 % of respective basal and 72.96 % of respective basal and 85.03 % of respective basal and 97.42 % of respective basal and 91.18 % of respective basal | HVA release, MEAN (T3 h 30-T4 h): 90.45 % of respective basal | HVA release, individual animals (T3 h 30-T4 h): 64.18 % of respective basal and 83.25 % of respective basal and 133.74 % of respective basal and 64.93 % of respective basal and 107.52 % of respective basal and 70.49 % of respective basal and 109.07 % of respective basal | HVA release, MEAN (T3 h-T3 h 30): 85.22 % of respective basal | HVA release, individual animals (T3 h-T3 h 30): 63.81 % of respective basal and 90.24 % of respective basal and 111.62 % of respective basal and 62.71 % of respective basal and 98.55 % of respective basal and 74.57 % of respective basal and 95.05 % of respective basal | HVA release, MEAN (T4 h 30-T5 h): 85.23 % of respective basal | HVA release, individual animals (T4 h 30-T5 h): 91.96 % of respective basal and 80.15 % of respective basal and 68.04 % of respective basal and 115.19 % of respective basal and 50.60 % of respective basal and 77.44 % of respective basal and 98.06 % of respective basal and 100.39 % of respective basal | HVA release, MEAN (T4 h-T4 h 30): 85.20 % of respective basal | HVA release, individual animals (T4 h-T4 h 30): 92.27 % of respective basal and 67.44 % of respective basal and 79.90 % of respective basal and 118.84 % of respective basal and 74.80 % of respective basal and 79.15 % of respective basal and 73.39 % of respective basal and 95.82 % of respective basal | HVA release, MEAN (T5 h 30-T6 h): 83.81 % of respective basal | HVA release, individual animals (T5 h 30-T6 h): 88.34 % of respective basal and 70.37 % of respective basal and 54.74 % of respective basal and 111.90 % of respective basal and 57.33 % of respective basal and 69.05 % of respective basal and 120.47 % of respective basal and 98.25 % of respective basal | HVA release, MEAN (T5 h-T5 h 30): 72.11 % of respective basal | HVA release, individual animals (T5 h-T5 h 30): 33.79 % of respective basal and 37.83 % of respective basal and 125.18 % of respective basal and 104.80 % of respective basal and 54.92 % of respective basal and 81.46 % of respective basal and 45.38 % of respective basal and 93.54 % of respective basal | HVA release, MEAN (T6 h 30-T7 h): 82.40 % of respective basal | HVA release, individual animals (T6 h 30-T7 h): 80.98 % of respective basal and 79.92 % of respective basal and 57.44 % of respective basal and 123.91 % of respective basal and 59.14 % of respective basal and 77.28 % of respective basal | HVA release, MEAN (T6 h-T6 h 30): 78.87 % of respective basal | HVA release, individual animals (T6 h-T6 h 30): 80.55 % of respective basal and 69.54 % of respective basal and 51.01 % of respective basal and 121.49 % of respective basal and 63.35 % of respective basal and 86.74 % of respective basal and 63.13 % of respective basal and 95.14 % of respective basal | HVA release, MEAN (T-30 min-T0 (before administration)): 101.32 % of respective basal | HVA release, MEAN (T-1 h 30-T-1 h (before administration)): 95.27 % of respective basal | HVA release, MEAN (T-1 h-T-30 min (before administration)): 103.42 % of respective basal | HVA dialysate levels vs mean pre-administration value (SON-117 0.1 mg/kg I.P.): no statistically significant differences | HVA dialysate levels vs mean pre-administration value (SON-117 0.3 mg/kg IP): no statistically significant differences | HVA release (% of basal levels) measured in dialysates, MEAN (T0-T30 min): 94.34 % of basal levels | HVA release (% of basal levels) measured in dialysates, MEAN (T30-T1 h): 98.30 % of basal levels

— patent US20250109127A1, “METHODS OF USE OF PHENOXYPROPYLAMINE COMPOUNDS TO TREAT DEPRESSION” (Minerva Neurosciences, Inc., priority 2013, published 2025)
